Structure (SMILES) | melting point
COc1cc(CC(=O)Nc2ccc(S(N)(=O)=O)cc2C)cc(Oc2cc(Cl)cc(C#N)c2)c1 [Compound I-133, 2-[3-(3-Chloro-5-cyano-phenoxy)-5-methoxy-phenyl]-N-(2-methyl-4-sulfamoyl-phenyl)-acetamide] | 169.9 to 171.1 °C
CN(C(=O)Cc1ccc(Cl)c(Oc2cc(Cl)cc(C#N)c2)c1F)c1ccccc1Cl [Compound I-111, 2-[4-Chloro-3-(3-chloro-5-cyano-phenoxy)-2-fluoro-phenyl]-N-(2-chloro-phenyl)-N-methyl-acetamide] | 134 to 137.1 °C
Cc1ccc(CC(=O)Nc2ccc(C(=O)O)cc2Cl)c(F)c1Oc1cc(C#N)cc(C(F)F)c1 [Compound I-110, 3-Chloro-4-{2-[3-(3-cyano-5-difluoromethyl-phenoxy)-2-fluoro-4-methyl-phenyl]-acetylamino}-benzoic acid] | 216.9 to 218.3 °C
Cc1cc(CC(=O)Nc2ccc(S(N)(=O)=O)cc2)cc(Oc2cc(Cl)cc(C#N)c2)c1 [Compound I-141, 2-[3-(3-Chloro-5-cyano-phenoxy)-5-methyl-phenyl]-N-(4-sulfamoyl-phenyl)-acetamide] | 183.9 to 185.2 °C
CCc1cc(CC(=O)Nc2ccc(S(N)(=O)=O)cc2C)cc(Oc2cc(C#N)ccc2Cl)c1 [Compound I-106, 2-[3-(2-Chloro-5-cyano-phenoxy)-5-ethyl-phenyl]-N-(2-methyl-4-sulfamoyl-phenyl)-acetamide] | 231.6 to 233.1 °C
COc1cc(CC(=O)Nc2ccc(S(N)(=O)=O)cc2)cc(Oc2cc(Cl)cc(C#N)c2)c1 [Compound I-132, 2-[3-(3-Chloro-5-cyano-phenoxy)-5-methoxy-phenyl]-N-(4-sulfamoyl-phenyl)-acetamide] | 184.1 to 185.5 °C
COc1cc(CC(=O)Nc2ccc(S(N)(=O)=O)cc2Cl)cc(Oc2cc(Cl)cc(C#N)c2)c1 [Compound I-136, 2-[3-(3-Chloro-5-cyano-phenoxy)-5-methoxy-phenyl]-N-(2-chloro-4-sulfamoyl-phenyl)-acetamide] | 159 to 161.1 °C
Cc1cc(S(=O)(=O)CCN)ccc1NC(=O)Cc1ccc(C)c(Oc2cc(Cl)cc(C#N)c2)c1 [Compound I-154, N-[4-(2-Amino-ethanesulfonyl)-2-methyl-phenyl]-2-[3-(3-chloro-5-cyano-phenoxy)-4-methyl-phenyl]-acetamide] | 92.4 to 95.5 °C
N#Cc1cc(C#N)cc(Oc2c(Cl)ccc(CC(=O)Nc3ccc(S(N)(=O)=O)cc3)c2F)c1 [Compound I-9, 2-[4-Chloro-3-(3,5-dicyano-phenoxy)-2-fluoro-phenyl]-N-(4-sulfamoyl-phenyl)-acetamide] | 135.7 to 138.1 °C
CC(C)c1ccc(CC(=O)Nc2ccccc2Cl)cc1Oc1cc(Cl)ccc1Br [Compound I-27, 2-[3-(2-Bromo-5-chloro-phenoxy)-4-isopropyl-phenyl]-N-(2-chloro-phenyl)-acetamide] | 142.9 to 143.6 °C
Cc1cc(S(=O)(=O)NC2CCOCC2)ccc1NC(=O)Cc1ccc(C)c(Oc2cc(Cl)cc(C#N)c2)c1 [Compound I-128, 2-[3-(3-Chloro-5-cyano-phenoxy)-4-methyl-phenyl]-N-[2-methyl-4-(tetrahydro-pyran-4-ylsulfamoyl)-phenyl]-acetamide] | 171.7 to 172.6 °C
Cc1ccc(CC(=O)Nc2ccc(S(N)(=O)=O)cc2)cc1Oc1cc(F)cc(C#N)c1 [Compound I-11, 2-[3-(3-Cyano-5-fluoro-phenoxy)-4-methyl-phenyl]-N-(4-sulfamoyl-phenyl)-acetamide] | 165.8 to 168.1 °C
Cc1cc(S(=O)(=O)CCC(=O)O)ccc1NC(=O)Cc1ccc(C)c(Oc2cc(Cl)cc(C#N)c2)c1 [Compound I-125, 3-(4-{2-[3-(3-Chloro-5-cyano-phenoxy)-4-methyl-phenyl]-acetylamino}-3-methyl-benzenesulfonyl)-propionic acid] | 74.3 to 76.5 °C
CCc1ccc(CC(=O)Nc2ccc(S(N)(=O)=O)cc2C)cc1Oc1cc(Cl)cc(C#N)c1 [Compound I-46, 2-[3-(3-Chloro-5-cyano-phenoxy)-4-ethyl-phenyl]-N-(2-methyl-4-sulfamoyl-phenyl)-acetamide] | 189.1 to 189.4 °C
COc1cc(CC(=O)Nc2ccc(S(N)(=O)=O)cc2C)cc(Oc2cc(C#N)ccc2Cl)c1 [Compound I-103, 2-[3-(2-Chloro-5-cyano-phenoxy)-5-methoxy-phenyl]-N-(2-methyl-4-sulfamoyl-phenyl)-acetamide] | 179.8 to 184 °C
COc1ccc(CC(=O)Nc2ccc(S(N)(=O)=O)cc2)cc1Oc1cc(C#N)cc(C(F)F)c1 [Compound I-92, 2-[3-(3-Cyano-5-difluoromethyl-phenoxy)-4-methoxy-phenyl]-N-(4-sulfamoyl-phenyl)-acetamide] | 213.9 to 214.2 °C
Cc1cc(C(=O)CN2CCOCC2)ccc1NC(=O)Cc1ccc(C)c(Oc2cc(Cl)cc(C#N)c2)c1.O=C(O)C(F)(F)F | 110.3 to 110.5 °C
CCc1ccc(CC(=O)Nc2ccccc2Cl)cc1Oc1cc(Cl)cc(Br)c1 [Compound I-24, 2-[3-(3-Bromo-5-chloro-phenoxy)-4-ethyl-phenyl]-N-(2-chloro-phenyl)-acetamide] | 119.9 to 122.2 °C

Structure (SMILES) | melting point
Cc1cc(CC(=O)Nc2ccc(S(N)(=O)=O)cc2C)cc(C(=O)c2cccc(Cl)c2)c1 [Compound I-260, 2-[3-(3-Chloro-benzoyl)-5-methyl-phenyl]-N-(2-methyl-4-sulfamoyl-phenyl)-acetamide] | 210.3 to 211.6 °C
Cc1ccc(C#N)cc1C(=O)c1cc(CC(=O)Nc2ccc(S(N)(=O)=O)cc2)ccc1C [Compound I-266, 2-[3-(5-Cyano-2-methyl-benzoyl)-4-methyl-phenyl]-N-(4-sulfamoyl-phenyl)-acetamide] | 229.6 to 231.1 °C
Cc1ccc(CC(=O)Nc2ccccc2Cl)cc1Oc1cc(C#N)cc(C#N)c1 [Compound I-34, N-(2-Chloro-phenyl)-2-[3-(3,5-dicyano-phenoxy)-4-methyl-phenyl]-acetamide] | 175.1 to 177.5 °C
CCC(=O)NS(=O)(=O)c1ccc(NC(=O)Cc2ccc(Cl)c(Oc3cc(Cl)cc(C#N)c3)c2F)c(Cl)c1.[Na] | 155.4 to 157.5 °C
O=C(Cc1ccc(Cl)c(C(=O)c2cc(Cl)cc(Cl)c2)c1)Nc1ccccc1Cl [Compound I-247, 2-[4-Chloro-3-(3,5-dichloro-benzoyl)-phenyl]-N-(2-chloro-phenyl)-acetamide] | 197.2 to 198.1 °C
CCc1ccc(CC(=O)Nc2ccc(S(N)(=O)=O)cc2Cl)c(F)c1Oc1cc(C#N)cc(C(F)F)c1 [Compound I-179, N-(2-Chloro-4-sulfamoyl-phenyl)-2-[3-(3-cyano-5-difluoromethyl-phenoxy)-4-ethyl-2-fluoro-phenyl]-acetamide] | 239.6 to 240.7 °C
CCc1ccc(CC(=O)Nc2ccccc2Cl)cc1Oc1cc(Cl)cc(Br)c1Cl [Compound I-37, 2-[3-(3-Bromo-2,5-dichloro-phenoxy)-4-ethyl-phenyl]-N-(2-chloro-phenyl)-acetamide] | 146.5 to 147.6 °C
CCc1ccc(CC(=O)Nc2ccc(S(N)(=O)=O)cc2)cc1Oc1cc(Cl)cc(C#N)c1 [Compound I-45, 2-[3-(3-Chloro-5-cyano-phenoxy)-4-ethyl-phenyl]-N-(4-sulfamoyl-phenyl)-acetamide] | 170.7 to 172.4 °C
Cc1ccc(CC(=O)Nc2ccc(S(N)(=O)=O)cc2Cl)cc1Oc1cc(C#N)cc(C#N)c1 [Compound I-44, N-(2-Chloro-4-sulfamoyl-phenyl)-2-[3-(3,5-dicyano-phenoxy)-4-methyl-phenyl]-acetamide] | 209.9 to 211.5 °C
CCc1ccc(CC(=O)Nc2ccc(S(N)(=O)=O)cc2)cc1Oc1cc(C#N)cc(C(F)F)c1 [Compound I-91, 2-[3-(3-Cyano-5-difluoromethyl-phenoxy)-4-ethyl-phenyl]-N-(4-sulfamoyl-phenyl)-acetamide] | 188 to 198 °C
Cc1cc(CC(=O)Nc2ccc(S(N)(=O)=O)cc2)cc(Oc2cc(C#N)ccc2Cl)c1 [Compound I-146, 2-[3-(2-Chloro-5-cyano-phenoxy)-5-methyl-phenyl]-N-(4-sulfamoyl-phenyl)-acetamide] | 235.9 to 236.7 °C
CCc1ccc(CC(=O)Nc2ccc(S(N)(=O)=O)cc2)cc1Oc1cc(Br)cc(F)c1Cl [Compound I-39, 2-[3-(5-Bromo-2-chloro-3-fluoro-phenoxy)-4-ethyl-phenyl]-N-(4-sulfamoyl-phenyl)-acetamide] | 209.9 to 211.1 °C
Cc1cc(N2CCCCS2(=O)=O)ccc1NC(=O)Cc1ccc(C)c(Oc2cc(Cl)cc(C#N)c2)c1 [Compound I-158, 2-[3-(3-Chloro-5-cyano-phenoxy)-4-methyl-phenyl]-N-[4-(1,1-dioxo-1λ^6-[1,2]thiazinan-2-yl)-2-methyl-phenyl]-acetamide] | 84.3 to 85.6 °C
N#Cc1cc(Oc2c(Cl)ccc(CC(=O)Nc3ccc(S(N)(=O)=O)cc3)c2F)cc(C(F)F)c1 [Compound I-13, 2-[4-Chloro-3-(3-cyano-5-difluoromethyl-phenoxy)-2-fluoro-phenyl]-N-(4-sulfamoyl-phenyl)-acetamide] | 214 to 218 °C
N#Cc1cc(C#N)cc(Oc2c(Cl)ccc(CC(=O)Nc3ccccc3Cl)c2F)c1 [Compound I-28, 2-[4-Chloro-3-(3,5-dicyano-phenoxy)-2-fluoro-phenyl]-N-(2-chloro-phenyl)-acetamide] | 182.6 to 196.5 °C
Cc1ccncc1NC(=O)Cc1ccc(C)c(Oc2cc(Cl)cc(C#N)c2)c1 [Compound I-224, 2-[3-(3-Chloro-5-cyano-phenoxy)-4-methyl-phenyl]-N-(4-methyl-pyridin-3-yl)-acetamide] | 158.6 to 159.1 °C
Cc1cc(OCC(=O)O)ccc1NC(=O)Cc1ccc(C)c(Oc2cc(Cl)cc(C#N)c2)c1 [Compound I-234, (4-{2-[3-(3-Chloro-5-cyano-phenoxy)-4-methyl-phenyl]-acetylamino}-3-methyl-phenoxy)-acetic acid] | 174.8 to 176.4 °C
Cc1ccc(CC(=O)Nc2ccccc2Cl)cc1Oc1cc(Cl)ccc1Br [Compound I-33, 2-[3-(2-Bromo-5-chloro-phenoxy)-4-methyl-phenyl]-N-(2-chloro-phenyl)-acetamide] | 133.9 to 135.9 °C
